Experiments:
[1] = system: dsDNA (DNA, duplex) CAATCGGATCGAATTCGATCCGATTG; assay: FRET melting (real-time PCR); details: 50 mM KCl; Tris-HCl pH 7.4; 1 μM oligonucleotide, EKB 8 eq (8 μM)
[2] = system: G4 (DNA, G4) GGGGAGGGGCTGGGAGGGCCCGGAGGGGGCTGGGCCGGGGACCCGGGAGGGGTCGGGACGGGGCGGGG; assay: FRET melting (real-time PCR); details: 50 mM KCl; Tris-HCl pH 7.4; 1 μM oligonucleotide, EKB 8 eq (8 μM)
[3] = system: c-Myc G4 (DNA, G4) GCGCTTATGGGGAGGGTGGGGAGGGTGGGGAAGGTGGGGAGGAGAC; assay: FRET melting (real-time PCR); details: 50 mM KCl; Tris-HCl pH 7.4; 1 μM oligonucleotide, EKB 8 eq (8 μM)
[4] = system: c-KIT G4 (DNA, G4) AGGGAGGGCGCTGGGAGGAGGGG; assay: FRET melting (real-time PCR); details: 50 mM KCl; Tris-HCl pH 7.4; 1 μM oligonucleotide, EKB 8 eq (8 μM)
[5] = system: Bcl-2 G4 (DNA, G4) CGGGCGGGAGCGCGGCGGGCGGGCGGG; assay: FRET melting (real-time PCR); details: 50 mM KCl; Tris-HCl pH 7.4; 1 μM oligonucleotide, EKB 8 eq (8 μM)
[6] = system: k-RAS G4 (DNA, G4) AGGGCGGTGTGGGAAGAGGGAAGAGGGGGAGG; assay: FRET melting (real-time PCR); details: 50 mM KCl; Tris-HCl pH 7.4; 1 μM oligonucleotide, EKB 8 eq (8 μM)
[7] = system: c-Myc G4 (UV titration) (DNA, G4) GCGCTTATGGGGAGGGTGGGGAGGGTGGGGAAGGTGGGGAGGAGAC; assay: UV-visible absorption titration; details: 100 mM KCl; 10 mM Tris-HCl pH 7.4, room temperature; EKB 20 μM, G4:EKB 1:1 to 8:1
[8] = system: Bcl-2 G4 (UV titration) (DNA, G4) CGGGCGGGAGCGCGGCGGGCGGGCGGG; assay: UV-visible absorption titration; details: 100 mM KCl; 10 mM Tris-HCl pH 7.4, room temperature; EKB 20 μM, G4:EKB 1:1 to 8:1
[9] = system: c-KIT G4 (UV titration) (DNA, G4) AGGGAGGGCGCTGGGAGGAGGGG; assay: UV-visible absorption titration; details: 100 mM KCl; 10 mM Tris-HCl pH 7.4, room temperature; EKB 20 μM, G4:EKB 1:1 to 8:1
[10] = system: k-RAS G4 (UV titration) (DNA, G4) AGGGCGGTGTGGGAAGAGGGAAGAGGGGGAGG; assay: UV-visible absorption titration; details: 100 mM KCl; 10 mM Tris-HCl pH 7.4, room temperature; EKB 20 μM, G4:EKB 1:1 to 8:1

ΔTm [1]: –1.16 °C
ΔTm [2]: 2.12 °C
ΔTm [3]: 3.90 °C
ΔTm [4]: 4.17 °C
ΔTm [5]: 7.09 °C
ΔTm [6]: 3.22 °C
binding [7]: yes
binding [8]: yes
binding [9]: yes
binding [10]: yes
Compound: CC(C)=CCc1cc(-c2cc(=O)c3c(O)cc(O)c(CC=C(C)C)c3o2)cc(O)c1O

— publication PMC13107025 (2025)
